Test results published in PMC11637191, “The pH-dependence of efflux ratios determined with bidirectional transport assays across cellular monolayers” (International Journal of Pharmaceutics: X, 2024).
Read-outs that look alike come from different tables or passages of the source.

What was measured:
MDCK-MDR1 cells [1] = conditions: pH 7.4 iso-method, cited from earlier work; for Papp, B⟶A: without inhibitor; for Papp, inhibitor: with inhibitor
MDCK-MDR1 cells [2] = experiment: Comparison of Papp,B-A with and without inhibitor in MDCK-MDR1 cells (own and literature data); conditions: calculated from literature Papp,B⟶A and Papp with inhibitor; pH 7.4 iso-method
[3] = ref Troutman and Thakker (2003)

CC(C)c1nc(CN(C)C(=O)N[C@H](C(=O)N[C@@H](Cc2ccccc2)C[C@H](O)[C@H](Cc2ccccc2)NC(=O)OCc2cncs2)C(C)C)cs1 [Ritonavir]
Papp, B⟶A (MDCK-MDR1 cells [1]; [3]): 2.36e-05 cm/s | Factor difference (MDCK-MDR1 cells [2]): 6

CN/C(=N/CCSCc1nc[nH]c1C)NC#N [Cimetidine]
Papp, inhibitor (MDCK-MDR1 cells [1]; ref Doan et al. (2002)): 5.15e-07 cm/s | Papp, B⟶A (MDCK-MDR1 cells [1]; ref Doan et al. (2002)): 1.89e-06 cm/s | Factor difference (MDCK-MDR1 cells [2]): 4

CC(C)(C)NC(=O)[C@@H]1C[C@@H]2CCCC[C@@H]2CN1C[C@@H](O)[C@H](Cc1ccccc1)NC(=O)[C@H](CC(N)=O)NC(=O)c1ccc2ccccc2n1 [Saquinavir]
Papp, inhibitor (MDCK-MDR1 cells [1]; ref Doan et al. (2002)): 2.2e-05 cm/s | Papp, inhibitor (MDCK-MDR1 cells [1]; [3]): 1.26e-05 cm/s | Papp, B⟶A (MDCK-MDR1 cells [1]; ref Doan et al. (2002)): 3.95e-05 cm/s | Papp, B⟶A (MDCK-MDR1 cells [1]; [3]): 0.000108 cm/s

CC(C)(C)c1ccc(C(O)CCCN2CCC(C(O)(c3ccccc3)c3ccccc3)CC2)cc1 (stereo not shown) [Terfenadine]
Papp, inhibitor (MDCK-MDR1 cells [1]; ref Doan et al. (2002)): 2.85e-05 cm/s | Papp, inhibitor (MDCK-MDR1 cells [1]; ref Obradovic et al. (2007)): 2.39e-06 cm/s | Papp, B⟶A (MDCK-MDR1 cells [1]; ref Doan et al. (2002)): 4.21e-05 cm/s | Papp, B⟶A (MDCK-MDR1 cells [1]; ref Obradovic et al. (2007)): 1.143e-05 cm/s

CN(C)C(=O)Oc1cccc([N+](C)(C)C)c1 [Neostigmine]
Papp, inhibitor (MDCK-MDR1 cells [1]; ref Doan et al. (2002)): 8.52e-07 cm/s | Papp, B⟶A (MDCK-MDR1 cells [1]; ref Doan et al. (2002)): 1.54e-06 cm/s | Factor difference (MDCK-MDR1 cells [2]): 2

C[C@H]1C[C@@H]2[C@H]([C@@H](O)C[C@@]3(C)[C@H]2CC[C@]3(O)C(=O)CO)[C@@]2(C)C=CC(=O)C=C12 [Methylprednisolone]
Papp, inhibitor (MDCK-MDR1 cells [1]; [3]): 2.848e-05 cm/s | Papp, B⟶A (MDCK-MDR1 cells [1]; [3]): 9.43e-05 cm/s | Factor difference (MDCK-MDR1 cells [2]): 3

CN1CCC[C@@H]1CCO[C@](C)(c1ccccc1)c1ccc(Cl)cc1 [Clemastine]
Papp, B⟶A (MDCK-MDR1 cells [1]; ref Obradovic et al. (2007)): 0.0001564 cm/s | Factor difference (MDCK-MDR1 cells [2]): 3

CNC(=C[N+](=O)[O-])NCCSCc1ccc(CN(C)C)o1 [Ranitidine]
Papp, inhibitor (MDCK-MDR1 cells [1]; [3]): 1.25e-06 cm/s | Papp, B⟶A (MDCK-MDR1 cells [1]; [3]): 3.29e-06 cm/s | Factor difference (MDCK-MDR1 cells [2]): 3

COC(=O)c1ccccc1-c1c2ccc(=N)cc-2oc2cc(N)ccc12 [Rhodamine 123]
Papp, inhibitor (MDCK-MDR1 cells [1]; ref Tang et al. (2004)): 1.173e-06 cm/s | Papp, inhibitor (MDCK-MDR1 cells [1]; [3]): 1.16e-06 cm/s | Papp, inhibitor (MDCK-MDR1 cells [1]; ref Wang et al. (2005)): 2.2e-06 cm/s | Papp, B⟶A (MDCK-MDR1 cells [1]; ref Tang et al. (2004)): 1.017e-05 cm/s | Papp, B⟶A (MDCK-MDR1 cells [1]; [3]): 1.53e-05 cm/s | Papp, B⟶A (MDCK-MDR1 cells [1]; ref Wang et al. (2005)): 7.63e-06 cm/s

C=C[C@H]1C[N@@]2CC[C@H]1C[C@@H]2[C@@H](O)c1ccnc2ccc(OC)cc12 [Quinidine]
Papp, inhibitor (MDCK-MDR1 cells [1]; ref Gertz et al. (2010)): 1.76e-07 cm/s | Papp, inhibitor (MDCK-MDR1 cells [1]; [3]): 2.56e-05 cm/s | Papp, inhibitor (MDCK-MDR1 cells [1]; ref Wang et al. (2005)): 1e-05 cm/s | Papp, B⟶A (MDCK-MDR1 cells [1]; ref Gertz et al. (2010)): 6.688e-05 cm/s | Papp, B⟶A (MDCK-MDR1 cells [1]; [3]): 0.000156 cm/s | Papp, B⟶A (MDCK-MDR1 cells [1]; ref Wang et al. (2005)): 0.00011482 cm/s

Cc1cn([C@H]2C[C@H](N=[N+]=[N-])[C@@H](CO)O2)c(=O)[nH]c1=O [Zidovudine]
Papp, inhibitor (MDCK-MDR1 cells [1]; ref De Souza et al. (2009)): 3.26e-06 cm/s | Papp, B⟶A (MDCK-MDR1 cells [1]; ref De Souza et al. (2009)): 9.98e-06 cm/s | Factor difference (MDCK-MDR1 cells [2]): 3

CN(C)C(=O)C(CCN1CCC(O)(c2ccc(Cl)cc2)CC1)(c1ccccc1)c1ccccc1 [Loperamide]
Papp, inhibitor (MDCK-MDR1 cells [1]; ref Doan et al. (2002)): 4.56e-05 cm/s | Papp, inhibitor (MDCK-MDR1 cells [1]; ref Wang et al. (2005)): 1.2e-05 cm/s | Papp, B⟶A (MDCK-MDR1 cells [1]; ref Doan et al. (2002)): 7.73e-05 cm/s | Papp, B⟶A (MDCK-MDR1 cells [1]; ref Wang et al. (2005)): 4.264e-05 cm/s

CN(C)CCC(c1ccc(Cl)cc1)c1ccccn1 (stereo not shown) [Chlorpheniramine]
Papp, inhibitor (MDCK-MDR1 cells [1]; ref Obradovic et al. (2007)): 6.62e-05 cm/s | Papp, B⟶A (MDCK-MDR1 cells [1]; ref Obradovic et al. (2007)): 9.37e-05 cm/s | Factor difference (MDCK-MDR1 cells [2]): 1

CN(C)CCC(c1ccc(Br)cc1)c1ccccn1 (stereo not shown) [Brompheniramine]
Papp, inhibitor (MDCK-MDR1 cells [1]; ref Obradovic et al. (2007)): 7.68e-05 cm/s | Papp, B⟶A (MDCK-MDR1 cells [1]; ref Obradovic et al. (2007)): 0.0001188 cm/s | Factor difference (MDCK-MDR1 cells [2]): 2

CC[C@]1(O)C[C@@H]2CN(CCc3c([nH]c4ccccc34)[C@@](C(=O)OC)(c3cc4c(cc3OC)N(C)[C@H]3[C@@](O)(C(=O)OC)[C@H](OC(C)=O)[C@]5(CC)C=CCN6CC[C@]43[C@@H]65)C2)C1 [Vinblastine]
Papp, inhibitor (MDCK-MDR1 cells [1]; ref Taub et al. (2005)): 1.92e-06 cm/s | Papp, inhibitor (MDCK-MDR1 cells [1]; [3]): 1.77e-05 cm/s | Papp, inhibitor (MDCK-MDR1 cells [1]; ref Wang et al. (2005)): 1.2e-06 cm/s | Papp, B⟶A (MDCK-MDR1 cells [1]; ref Taub et al. (2005)): 1.322e-05 cm/s | Papp, B⟶A (MDCK-MDR1 cells [1]; [3]): 3.57e-05 cm/s | Papp, B⟶A (MDCK-MDR1 cells [1]; ref Wang et al. (2005)): 1.077e-05 cm/s

Nc1ccn([C@@H]2CS[C@H](CO)O2)c(=O)n1 [Lamiduvine]
Papp, inhibitor (MDCK-MDR1 cells [1]; ref De Souza et al. (2009)): 1.1e-07 cm/s | Papp, B⟶A (MDCK-MDR1 cells [1]; ref De Souza et al. (2009)): 1.8e-07 cm/s | Factor difference (MDCK-MDR1 cells [2]): 2
